Our source for the IC50 values is patent publication US12152038B2, “Vasopressin receptor antagonists and products and methods related thereto” (Neumora Therapeutics, Inc., priority 2017, dated 2024).

Structures are written as SMILES.

Broadly, the IC50 is the concentration at which inhibition is half-maximal.

In assay [1] the target is T1, human Arginine Vasopressin Receptor 1a (AVPR1a) (Homo sapiens, UniProt P37288).
T1 construct: expressed in transfected cells; host or cells: CHO (CHO-AVPR1a, kept under G418 selection)
T1 sequence (P37288 whole entry): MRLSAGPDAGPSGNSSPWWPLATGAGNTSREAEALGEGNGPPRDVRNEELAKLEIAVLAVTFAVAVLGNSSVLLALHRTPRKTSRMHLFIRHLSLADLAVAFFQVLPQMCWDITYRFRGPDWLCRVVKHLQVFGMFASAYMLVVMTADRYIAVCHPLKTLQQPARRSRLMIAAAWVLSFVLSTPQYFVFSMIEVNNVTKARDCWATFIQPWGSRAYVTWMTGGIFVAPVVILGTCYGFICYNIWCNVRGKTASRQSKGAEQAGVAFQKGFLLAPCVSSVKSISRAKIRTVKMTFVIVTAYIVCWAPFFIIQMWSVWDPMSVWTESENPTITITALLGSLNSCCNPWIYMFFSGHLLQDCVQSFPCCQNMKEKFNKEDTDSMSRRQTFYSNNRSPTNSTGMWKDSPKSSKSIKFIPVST
In words: Vasopressin V1a receptor antagonist assay (FLIPR calcium, CHO-AVPR1a cells). In kind it is cell-based. A digest of the protocol:
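CHO cells expressing human AVPR1a were loaded with Calcium-6 dye and preincubated with compound for 15 min at 37° C. Cells were then challenged with AVP at its daily-determined EC80, and FLIPR fluorescence was read. Compounds were tested in duplicate as 10-point 1:3 dilutions from a top final concentration of 3 μM.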

Assay [2] deals with T2, human Arginine Vasopressin Receptor V2 (AVPR2) (Homo sapiens, UniProt P30518).
T2 construct: host or cells: 1321N1 (cAMPZen V2 assay ready frozen cells)
T2 sequence (P30518 whole entry): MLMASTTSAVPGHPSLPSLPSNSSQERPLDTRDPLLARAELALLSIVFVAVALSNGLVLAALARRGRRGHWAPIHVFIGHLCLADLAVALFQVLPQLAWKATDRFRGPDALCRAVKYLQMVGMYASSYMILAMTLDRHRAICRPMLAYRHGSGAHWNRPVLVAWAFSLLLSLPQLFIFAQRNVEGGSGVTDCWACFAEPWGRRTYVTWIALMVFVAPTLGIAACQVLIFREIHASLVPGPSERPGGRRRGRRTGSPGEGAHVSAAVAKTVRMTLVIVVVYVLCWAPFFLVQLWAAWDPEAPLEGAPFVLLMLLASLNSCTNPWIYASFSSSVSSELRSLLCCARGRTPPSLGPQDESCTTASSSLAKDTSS
In words: Vasopressin V2 receptor antagonist assay (TR-FRET cAMP, 1321N1 cells). Format: cell-based.

In the case of `Cc1nccc(N2CC3(CN(C(=O)N4c5ccc(Cl)cc5OCC4C)C3)C2)n1` (stereo not shown) [21-8], the IC50 in assay [1] was < 100 nM; in assay [2], 100 to 500 nM.
In the same order, the values of `CC1COc2cc(Cl)ccc2N1C(=O)N1CC2(C1)CN(c1ncccc1F)C2` (single isomer, unassigned) [1-57-A] are < 100 nM and < 100 nM.
As for `CC1COc2cc(Cl)ccc2N1C(=O)N1CC2(C1)CN(c1ccc(F)cn1)C2` (single isomer, unassigned) [1-73-B], the IC50 in assay [1] and in assay [2] was < 100 nM throughout.
As for `Cc1cnnc(N2CC3(CN(C(=O)N4c5ccc(Cl)cc5OCC4C)C3)C2)c1` (stereo not shown) [21-4], the values for the IC50 in assay [1] and in assay [2] were < 100 nM and 100 to 500 nM, respectively.
For `O=C(N1CC2(C1)CN(c1ccc(F)c(F)n1)C2)N1CCOc2cc(Cl)ccc21` [1-49] the same measures were < 100 nM and ≥ 1000 nM.
For `Cc1cncc(N2CC3(CN(C(=O)N4CCOc5cc(Cl)ccc54)C3)C2)n1` [1-22] the same measures were < 100 nM and ≥ 1000 nM.
Regarding `COc1nccnc1N1CC2(CN(C(=O)N3CCOc4cc(Cl)ccc43)C2)C1` [1-43], the IC50 in assay [1] is < 100 nM; in assay [2], ≥ 1000 nM.
For `Cc1cnc(N2CC3(CN(C(=O)N4CCOc5cc(Cl)ccc54)C3)C2)cn1` [1-20] the same measures were < 100 nM and ≥ 1000 nM.
In the same order, the values of `CC1COc2cc(Cl)ccc2N1C(=O)N1CC2(C1)CN(c1nn(C)c3ncccc13)C2` (single isomer, unassigned) [20-15-B] are < 100 nM and < 100 nM.
In the case of `CC1COc2cc(Cl)ccc2N1C(=O)N1CC2(C1)CN(c1ncncc1F)C2` (stereo not shown) [21-5], the IC50 was < 100 nM in assay [1] and 100 to 500 nM in assay [2].
For `O=C(N1CC2(C1)CN(c1ccc(F)cn1)C2)N1CCOc2cc(F)ccc21` [1-64] the same measures were < 100 nM and ≥ 1000 nM.
As for `COc1ccc(N2CC3(CN(C(=O)N4CCOc5cc(Cl)ccc54)C3)C2)nc1` [1-68], the IC50 was < 100 nM in assay [1] and ≥ 1000 nM in assay [2].
For `O=C(N1CC2(C1)CN(c1cc(F)ccn1)C2)N1CCOc2cc(Cl)ccc21` [1-70] the same measures were < 100 nM and ≥ 1000 nM.
In the same order, the values of `N#Cc1ccnc(N2CC3(CN(C(=O)N4CCOc5cc(Cl)ccc54)C3)C2)c1` [1-53] are < 100 nM and ≥ 1000 nM.
Consider `CC1COc2cc(Cl)ccc2N1C(=O)N1CC2(C1)CN(c1ccccn1)C2` (stereo not shown) [1-60], for which the results for the IC50 in assay [1] and in assay [2] were < 100 nM and 100 to 500 nM, respectively.
For the compound `CC1COc2cc(Cl)ccc2N1C(=O)N1CC2(C1)CN(c1noc3ccccc13)C2` (stereo not shown) [21-1, (6-(benzo[d]isoxazol-3-yl)-2,6-diazaspiro[3.3]heptan-2-yl)(7-chloro-3-methyl-2,3-dihydro-4H-benzo[b][1,4]oxazin-4-yl)methanone], the IC50 in assay [1] is < 100 nM; in assay [2] it was ≥ 1000 nM.
For `CC1COc2cc(F)ccc2N1C(=O)N1CC2(C1)CN(c1ncccc1F)C2` (stereo not shown) [1-67], the IC50 was < 100 nM in assay [1] and ≥ 1000 nM in assay [2].
In assay [2], `CC1COc2cc(Cl)ccc2N1C(=O)N1CC2(C1)CN(c1ncc(F)cn1)C2` (single isomer, unassigned) [18-2-B] yielded an IC50 of 100 to 500 nM.
As to `CC1COc2cc(F)ccc2N1C(=O)N1CC2(C1)CN(c1cnccn1)C2` (single isomer, unassigned) [1-65-B], the IC50 in assay [1] is < 100 nM; in assay [2], ≥ 1000 nM.
For `CCC1COc2cc(Cl)ccc2N1C(=O)N1CC2(C1)CN(c1ccc(F)cn1)C2` (single isomer, unassigned) [1-55-B], the IC50 in assay [1] and in assay [2] was < 100 nM in each case.
Turning to `Cc1cccc(N2CC3(CN(C(=O)N4CCOc5cc(Cl)ccc54)C3)C2)n1` [1-3], the results for the IC50 in assay [1] and in assay [2] were < 100 nM and 100 to 500 nM, respectively.
For `COc1ccc2c(c1)OCC(C)N2C(=O)N1CC2(C1)CN(c1ccc(F)cn1)C2` (single isomer, unassigned) [1-59-B] the same measures were < 100 nM and 100 to 500 nM.
Consider `CC1COc2cc(Cl)ccc2N1C(=O)N1CC2(C1)CN(c1nccc(C(F)(F)F)n1)C2` (stereo not shown) [21-10], for which the IC50 was < 100 nM in assay [1] and 100 to 500 nM in assay [2].
In the same order, the values of `Cc1cncc(N2CC3(CN(C(=O)N4c5ccc(Cl)cc5OCC4C)C3)C2)n1` (stereo not shown) [21-3] are < 100 nM and < 100 nM.
In the same order, the values of `CC1COc2cc(Cl)ccc2N1C(=O)N1CC2(C1)CN(c1ccncn1)C2` (stereo not shown) [21-6] are < 100 nM and ≥ 1000 nM.
For the compound `CCc1cnc(N2CC3(CN(C(=O)N4c5ccc(Cl)cc5OCC4C)C3)C2)nc1` (stereo not shown) [21-9], the IC50 in assay [1] is < 100 nM; in assay [2] it was 100 to 500 nM.
Regarding `O=C(N1CC2(C1)CN(c1cccnc1)C2)N1CCOc2cc(Cl)ccc21` [1-72], in assay [1], the 50% inhibitory concentration (IC50) was < 100 nM.
Take `CC1COc2cc(Cl)ccc2N1C(=O)N1CC2(C1)CN(c1cnccn1)C2` (single isomer, unassigned) [1-58-B]: the IC50 in assay [1] and in assay [2] was < 100 nM each time.
`Cc1cnc(N2CC3(CN(C(=O)N4c5ccc(Cl)cc5OCC4C)C3)C2)nc1` (single isomer, unassigned) [20-13-B]: the IC50 in assay [1] and in assay [2] was < 100 nM throughout.
On to `CC1COc2cc(Cl)ccc2N1C(=O)N1CC2(C1)CN(c1cc(=O)n(C)cn1)C2` (single isomer, unassigned) [20-14-B], for which the IC50 in assay [1] was < 100 nM; in assay [2], 500 to 1000 nM.
On to `CC1COc2cc(Cl)ccc2N1C(=O)N1CC2(C1)CN(c1ccccn1)C2` (single isomer, unassigned) [1-60-B], for which the IC50 in assay [1] and in assay [2] was < 100 nM in each case.
On to `O=C(N1CC2(C1)CN(c1cccnn1)C2)N1CCOc2cc(Cl)ccc21` [1-71], for which the IC50 in assay [1] is < 100 nM; in assay [2], ≥ 1000 nM.
In the same order, the values of `CC1COc2cc(Cl)ccc2N1C(=O)N1CC2(C1)CN(c1ccc(F)cn1)C2` (single isomer, unassigned) [1-73-A] are < 100 nM and ≥ 1000 nM.
For `O=C(N1CC2(C1)CN(c1cnc(F)cn1)C2)N1CCOc2cc(Cl)ccc21` [1-18] the same measures were < 100 nM and ≥ 1000 nM.
For `CC1COc2cc(Cl)ccc2N1C(=O)N1CC2(C1)CN(c1ncccc1C#N)C2` (stereo not shown) [21-2] the same measures were < 100 nM and ≥ 1000 nM.
In the case of `Cc1nc(N2CC3(CN(C(=O)N4CCOc5cc(Cl)ccc54)C3)C2)ccc1F` [1-30], the IC50 in assay [1] was < 100 nM; in assay [2], 500 to 1000 nM.
`O=C(N1CC2(C1)CN(c1ccc(F)cn1)C2)N1CCC(O)c2cc(Cl)ccc21` (single isomer, unassigned) [13-1-B]: the IC50 in assay [2] was ≥ 1000 nM.
Take `O=C(N1CC2(C1)CN(c1cc(F)cc(F)n1)C2)N1CCOc2cc(Cl)ccc21` [1-51]: the values for the IC50 in assay [1] and in assay [2] were < 100 nM and ≥ 1000 nM, respectively.
For `N#Cc1cccc(N2CC3(CN(C(=O)N4CCOc5cc(Cl)ccc54)C3)C2)n1` [1-39] the same measures were < 100 nM and ≥ 1000 nM.
For `CC1COc2cc(F)ccc2N1C(=O)N1CC2(C1)CN(c1ncccc1F)C2` (single isomer, unassigned) [1-67-A] the same measures were < 100 nM and 100 to 500 nM.
For `Cc1cc(F)nc(N2CC3(CN(C(=O)N4CCOc5cc(Cl)ccc54)C3)C2)c1` [1-45] the same measures were < 100 nM and ≥ 1000 nM.
Take `O=C(N1CC2(C1)CN(c1cccc(F)n1)C2)N1CCOc2cc(Cl)ccc21` [1-69]: the figures for the IC50 in assay [1] and in assay [2] were < 100 nM and ≥ 1000 nM, respectively.
Consider `CC1COc2cc(F)ccc2N1C(=O)N1CC2(C1)CN(c1ccccn1)C2` (single isomer, unassigned) [1-66-B], for which the IC50 in assay [1] was < 100 nM; in assay [2], 500 to 1000 nM.
`Cc1cc(N2CC3(CN(C(=O)N4c5ccc(Cl)cc5OCC4C)C3)C2)ncn1` (stereo not shown) [21-11]: the values for the IC50 in assay [1] and in assay [2] were < 100 nM and 500 to 1000 nM, respectively.
